IC50 and GI50 data for 1 compound are collected here from paper PMC5933782, “Molecular structures of cdc2-like kinases in complex with a new inhibitor chemotype” (PLoS ONE, 2018).

pIC50: −log10 of the molar value.

The target of one assay is CLK4 (Mus musculus, UniProt O35493). Nature of the assay: radiometric protein kinase assay.
The next assay addresses CLK3 (Mus musculus, UniProt O35492). Nature of the assay: radiometric protein kinase assay.
In the next assay the target is CK1δ/ε. Nature of the assay: radiometric protein kinase assay. The class given is biochemical, porcine. The conditions noted are these: 15 μmol/L ATP; read-out: IC50 CK1.
A further assay deals with GSK-3. The assay can be described thus: radiometric protein kinase assay. The class given is biochemical, porcine. As to conditions: 15 μmol/L ATP; read-out: IC50 GSK3.
A further assay deals with UACC-257. The assay can be described thus: NCI cancer cell line screening. The class given is cell-based, human. The protocol: Being the most promising compound in terms of CLK1 inhibitory potency and selectivity, KuWal151 (8c) was tested in the National Cancer Institute cancer cell line screening on 57 tumor cell lines of different tissue origin [45]. With only a few exceptions, KuWal151 inhibited the growth of most cell lines in submicromolar concentrations. In Table 2 the cancer cell line inhibition data is listed with the expression rates of SPF45 and CLK1 as indicated in the Expression Atlas database (https://www.ebi.ac.uk/gxa/home). Apparently the cell lines with high levels of CLK1 encoding RNA are inhibited over average. […] However, the available data are not sufficient to construe a clear relationship between the expression levels of the putative target CLK1 and sensitivity of the cell lines against 8c. The same holds true for SPF45, an important substrate of CLK1 involved in splicing which is found to be overexpressed in many cancer cell lines. […] The lack of a straight relationship between CLK1 and/or SPF45 expression levels on the one hand and sensitivity against the CLK1 inhibitor 8c on the other hand may have various reasons, e.g. different uptake rates of the inhibitor by the cells or alternative intracellular targets. […]

For another assay, the system named is NCI-H522. The assay can be described thus: NCI cancer cell line screening. It counts as cell-based. The conditions noted are these: Homo sapiens; NCI-H522, Non-Small Cell Lung Cancer. The protocol: (§1) Being the most promising compound in terms of CLK1 inhibitory potency and selectivity, KuWal151 (8c) was tested in the National Cancer Institute cancer cell line screening on 57 tumor cell lines of different tissue origin [45]. With only a few exceptions, KuWal151 inhibited the growth of most cell lines in submicromolar concentrations. In Table 2 the cancer cell line inhibition data is listed with the expression rates of SPF45 and CLK1 as indicated in the Expression Atlas database (https://www.ebi.ac.uk/gxa/home). Apparently the cell lines with high levels of CLK1 encoding RNA are inhibited over average. […] However, the available data are not sufficient to construe a clear relationship between the expression levels of the putative target CLK1 and sensitivity of the cell lines against 8c. The same holds true for SPF45, an important substrate of CLK1 involved in splicing which is found to be overexpressed in many cancer cell lines. […] The lack of a straight relationship between CLK1 and/or SPF45 expression levels on the one hand and sensitivity against the CLK1 inhibitor 8c on the other hand may have various reasons, e.g. different uptake rates of the inhibitor by the cells or alternative intracellular targets. For verification of the results from the NCI screening, which is based on the in situ fixation of cells followed by staining with the protein-binding dye sulforhodamin B [47, 48], 8c was also tested on two cell lines of the NCI panel (HT-29 and MDA-MB-231) in a crystal violet assay.

The subject of another assay is IGROV1. The assay can be described thus: NCI cancer cell line screening. It counts as cell-based. As to conditions: Homo sapiens, IGROV-1; IGROV1, Ovarian Cancer. The protocol: as §1
In another assay the test system is EKVX. Nature of the assay: NCI cancer cell line screening. It counts as cell-based. As to conditions: Homo sapiens, Non-Small Cell Lung Cancer. The method, then: as §1
Another assay relates to KM12. The assay can be described thus: NCI cancer cell line screening. The class given is cell-based. As to conditions: Homo sapiens; KM12, Colon Cancer. The protocol: as §1
The subject of the next assay is RXF 393. Nature of the assay: NCI cancer cell line screening. It counts as cell-based. The conditions noted are these: Homo sapiens; RXF 393, Renal Cancer. The method, then:
as §1

A further assay deals with M14. Nature of the assay: NCI cancer cell line screening. It counts as cell-based. The conditions noted are these: Homo sapiens; M14, Melanoma. The method, then: as §1
The test system of a further assay is HL-60(TB). Nature of the assay: NCI cancer cell line screening. It counts as cell-based. The conditions noted are these: Homo sapiens, Leukemia. The method, then: as §1
The next assay relates to HCC-2998. Nature of the assay: NCI cancer cell line screening. The conditions noted are these: Homo sapiens; HCC-2998, Colon Cancer. The class given is cell-based. The protocol:
as §1

In a further assay the test system is LOX IMVI. The assay can be described thus: NCI cancer cell line screening. The class given is cell-based. The conditions noted are these: Homo sapiens, Melanoma. The protocol: as §1
The subject of the next assay is BT-549. The assay can be described thus: NCI cancer cell line screening. The class given is cell-based. The conditions noted are these: Homo sapiens; BT-549, Breast Cancer. The protocol: as §1
The next assay deals with MCF7. Nature of the assay: NCI cancer cell line screening. The conditions noted are these: Homo sapiens; MCF7, Breast Cancer. It counts as cell-based. The method, then: as §1
A further assay has as its target DYRK1A (Homo sapiens, UniProt Q13627). The assay can be described thus: radiometric protein kinase assay. The class given is biochemical. As to conditions: 15 μmol/L ATP; read-out: IC50 DYRK 1A.
In another assay the target is T1, DYRK2 (Homo sapiens, UniProt Q92630).
T1 sequence (Q92630 1-601): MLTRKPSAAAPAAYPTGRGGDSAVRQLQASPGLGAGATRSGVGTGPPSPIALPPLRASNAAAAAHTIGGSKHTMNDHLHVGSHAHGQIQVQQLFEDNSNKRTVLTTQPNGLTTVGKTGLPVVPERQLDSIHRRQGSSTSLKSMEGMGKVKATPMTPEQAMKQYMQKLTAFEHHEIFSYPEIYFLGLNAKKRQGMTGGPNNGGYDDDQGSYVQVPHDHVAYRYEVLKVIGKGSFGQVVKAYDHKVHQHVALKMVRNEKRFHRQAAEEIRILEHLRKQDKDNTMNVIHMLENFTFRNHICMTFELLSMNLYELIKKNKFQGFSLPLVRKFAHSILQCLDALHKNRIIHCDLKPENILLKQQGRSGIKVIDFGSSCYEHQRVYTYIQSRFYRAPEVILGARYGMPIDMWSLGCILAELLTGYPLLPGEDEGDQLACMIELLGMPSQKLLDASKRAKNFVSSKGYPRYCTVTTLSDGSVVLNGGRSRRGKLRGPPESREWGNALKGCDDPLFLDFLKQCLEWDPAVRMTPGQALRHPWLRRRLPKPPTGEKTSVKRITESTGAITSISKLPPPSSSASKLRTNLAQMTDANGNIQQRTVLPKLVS
The assay can be described thus: radiometric protein kinase assay. The class given is biochemical. The conditions noted are these: 15 μmol/L ATP; read-out: IC50 DYRK 2.

For orientation: pIC50 means the negative decadic logarithm of the IC50, by convention in mol/L. The term GI50 denotes the concentration that inhibits growth by half.

CLK3, sequence (O35492 whole entry): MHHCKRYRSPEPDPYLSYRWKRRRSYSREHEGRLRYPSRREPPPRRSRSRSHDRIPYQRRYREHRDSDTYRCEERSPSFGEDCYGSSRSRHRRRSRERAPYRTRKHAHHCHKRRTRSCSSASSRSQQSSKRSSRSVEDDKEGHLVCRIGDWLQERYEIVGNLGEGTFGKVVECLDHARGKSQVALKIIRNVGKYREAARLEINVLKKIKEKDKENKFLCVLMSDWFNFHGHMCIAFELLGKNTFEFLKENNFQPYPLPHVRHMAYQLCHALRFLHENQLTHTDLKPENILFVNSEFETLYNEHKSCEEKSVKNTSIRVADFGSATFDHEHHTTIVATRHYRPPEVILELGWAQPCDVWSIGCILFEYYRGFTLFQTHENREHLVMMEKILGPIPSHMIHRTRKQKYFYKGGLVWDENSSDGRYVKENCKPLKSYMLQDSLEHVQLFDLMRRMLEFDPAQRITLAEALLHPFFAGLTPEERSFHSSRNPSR
CLK4, sequence (O35493 whole entry): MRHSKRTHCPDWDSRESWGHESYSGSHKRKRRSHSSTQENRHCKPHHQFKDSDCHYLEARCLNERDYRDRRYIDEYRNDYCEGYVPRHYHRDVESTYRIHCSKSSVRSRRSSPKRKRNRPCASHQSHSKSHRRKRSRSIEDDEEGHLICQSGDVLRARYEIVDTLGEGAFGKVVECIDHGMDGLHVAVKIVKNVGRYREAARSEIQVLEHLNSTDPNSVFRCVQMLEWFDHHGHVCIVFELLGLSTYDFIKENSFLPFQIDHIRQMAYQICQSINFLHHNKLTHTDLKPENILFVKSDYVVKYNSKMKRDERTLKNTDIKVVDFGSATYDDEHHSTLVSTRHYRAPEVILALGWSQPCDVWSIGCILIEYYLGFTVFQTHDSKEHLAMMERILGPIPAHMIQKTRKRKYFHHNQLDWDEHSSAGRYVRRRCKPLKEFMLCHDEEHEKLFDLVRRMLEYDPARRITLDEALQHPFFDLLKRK
Description for CLK3: Buffers. Buffer A: 10 mM MgCl2, 1 mM EGTA, 1 mM DTT, 25 mM Tris-HCl pH 7.5, 50 μg heparin/mL. Buffer C: 60 mM β-glycerophosphate, 15 mM p-nitrophenylphosphate, 25 mM MOPS (pH 7.2), 15 mM EGTA, 15 mM MgCl2, 1 mM DTT, 1 mM sodium vanadate, 1 mM phenylphosphate.
Kinase activities were assayed in buffer A or C at 30°C at a final ATP concentration of 15 μmol/L. Blank values were subtracted and activities were expressed in percent of the maximal activity, i.e. in the absence of inhibitors. Controls were performed with appropriate dilutions of DMSO.
Their kinase activity was assayed in buffer A, with 1 mg histone H1/mL, in the presence of 15 μmol/L [γ-33P] ATP (3,000 Ci/mmol; 10 mCi/mL) in a final volume of 30 μL. After 30 min incubation at 30°C, the reaction was stopped by harvesting onto P81 phosphocellulose supernatant (Whatman) using a FilterMate harvester (Packard) and washing in 1% phosphoric acid. Scintillation fluid was added and the radioactivity measured in a Packard counter.
All data points for construction of dose response curves were recorded in triplicate.

Turning to `O=C1NCc2ccc3c(-c4cccc(Cl)c4)c[nH]c3c21` [8c, 3-(3-Chlorophenyl)-6,7-dihydropyrrolo[3,4-g]indol-8(1H)-one], the pIC50 against CLK4 is 7.55; on CLK3, < 5.00; at CK1δ/ε it was < 5.00; on GSK-3 it was < 5.00; on DYRK1A it was < 5.00; at DYRK2 it was < 5.00. Besides, the GI50 is > 50000 nM with UACC-257 (Homo sapiens, UACC-257, UACC-257, Melanoma); > 50100 nM in the assay on UACC-257 (UACC-257, Melanoma); 158 nM with NCI-H522; 427 nM in the assay on IGROV1; 355 nM in the assay on EKVX; 209 nM with KM12. Besides, the GI50 in the assay on RXF 393 amounted to 457 nM; in the assay with M14, 132 nM; with HL-60(TB), 141 nM; with HCC-2998, 912 nM; in the assay with LOX IMVI it was 245 nM; in the assay with BT-549, 204 nM. In the assay with MCF7, this compound yielded a GI50 of 174 nM.
